Data: ChEMBL document CHEMBL1201862, “PubChem BioAssay data set” (2004)
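Five compound concentrations were applied to cells in 96-well plates for 48 hours; endpoints were derived by simple linear interpolation of the resulting dose-response curve. The concentration for 50% growth inhibition is given as GI50.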 The source made the active and inactive calls. Cut-off read from the data, not from the text of the source: active = GI50 up to about 1.1 µM and inactive = higher.

How the values were obtained:
Experiment in all cases: NCI anticancer screen, dose series, 48 h
786-0 = test system: 786-0
A498 = test system: A498
A549 = test system: A549
ACHN = test system: ACHN
CAKI-1 = test system: CAKI-1
CCRF-CEM = test system: CCRF-CEM
COLO 205 = test system: COLO 205
DLD-1 = test system: DLD-1
DMS-273 = test system: DMS-273
EKVX = test system: EKVX
HCC 2998 = test system: HCC 2998
HCT-15 = test system: HCT-15
HL-60 = test system: HL-60
HOP-18 = test system: HOP-18
HOP-62 = test system: HOP-62
HT-29 = test system: HT-29
IGROV-1 = test system: IGROV-1
K562 = test system: K562
KM12 = test system: KM12
LOX IMVI = test system: LOX IMVI
LXFL 529 = test system: LXFL 529
M14 = test system: M14
M19-MEL = test system: M19-MEL
MOLT-4 = test system: MOLT-4
Malme-3M = test system: Malme-3M
NCI-H226 = test system: NCI-H226
NCI-H23 = test system: NCI-H23
NCI-H522 = test system: NCI-H522
OVCAR-3 = test system: OVCAR-3
OVCAR-4 = test system: OVCAR-4
OVCAR-5 = test system: OVCAR-5
OVCAR-8 = test system: OVCAR-8
RPMI-8226 = test system: RPMI-8226
RXF 393 = test system: RXF 393
RXF 631 = test system: RXF 631
SF-268 = test system: SF-268
SF-295 = test system: SF-295
SF-539 = test system: SF-539
SK-MEL-28 = test system: SK-MEL-28
SK-MEL-2 = test system: SK-MEL-2
SK-MEL-5 = test system: SK-MEL-5
SK-OV-3 = test system: SK-OV-3
SN12C = test system: SN12C
SNB-19 = test system: SNB-19
SNB-75 = test system: SNB-75
SNB-78 = test system: SNB-78
SW-620 = test system: SW-620
TK-10 = test system: TK-10
U-251 = test system: U-251
UACC-257 = test system: UACC-257
UACC-62 = test system: UACC-62
UO-31 = test system: UO-31
DMS-114 = test system: DMS-114
HCT-116 = test system: HCT-116
HOP-92 = test system: HOP-92
SR = test system: SR
XF498 = test system: XF498

For `S=C(Nc1ccccc1)Nc1[nH]c(=S)sc1-c1nc2ccccc2[nH]1`, the GI50 (786-0) was 34.2 µM (inactive), the GI50 (A498) was > 100 µM (inactive) and the GI50 (A549) was 65.6 µM (inactive). For the same molecule, the GI50 (ACHN) was 72.4 µM (inactive), the GI50 (CAKI-1) was 94 µM (inactive) and the GI50 (CCRF-CEM) was > 100 µM (inactive). For the same molecule, the GI50 (COLO 205) was > 100 µM (inactive), the GI50 (DLD-1) was 76.9 µM (inactive) and the GI50 (DMS-273) was 37.8 µM (inactive). The GI50 (EKVX) was 75.9 µM (inactive), the GI50 (HCC 2998) was > 100 µM (inactive) and the GI50 (HCT-15) was 98.2 µM. For the same molecule, the GI50 (HL-60) was > 100 µM (inactive), the GI50 (HOP-18) was > 100 µM (inactive) and the GI50 (HOP-62) was 23.1 µM (inactive). For the same molecule, the GI50 (HT-29) was > 100 µM (inactive), the GI50 (IGROV-1) was 94.2 µM (inactive) and the GI50 (K562) was > 100 µM (inactive). For the same molecule, the GI50 (KM12) was > 100 µM (inactive), the GI50 (LOX IMVI) was 61.4 µM (inactive) and the GI50 (LXFL 529) was 29.6 µM (inactive). The GI50 (M14) was 49.8 µM (inactive), the GI50 (M19-MEL) was > 100 µM (inactive) and the GI50 (MOLT-4) was > 100 µM (inactive). For the same molecule, the GI50 (Malme-3M) was 43 µM (inactive), the GI50 (NCI-H226) was 12.2 µM (inactive) and the GI50 (NCI-H23) was > 100 µM (inactive). For the same molecule, the GI50 (NCI-H522) was 62.4 µM (inactive), the GI50 (OVCAR-3) was 30.6 µM (inactive) and the GI50 (OVCAR-4) was 15.2 µM (inactive). For the same molecule, the GI50 (OVCAR-5) was > 100 µM (inactive), the GI50 (OVCAR-8) was 48.8 µM (inactive) and the GI50 (RPMI-8226) was 97.3 µM (inactive). The GI50 (RXF 393) was > 100 µM (inactive), the GI50 (RXF 631) was 65.6 µM (inactive) and the GI50 (SF-268) was 48.9 µM (inactive). For the same molecule, the GI50 (SF-295) was 41.9 µM (inactive), the GI50 (SF-539) was 28.6 µM (inactive) and the GI50 (SK-MEL-28) was 73.5 µM (inactive). The GI50 (SK-MEL-2) was 38.4 µM (inactive), the GI50 (SK-MEL-5) was 28.8 µM (inactive) and the GI50 (SK-OV-3) was 37.9 µM (inactive). The GI50 (SN12C) was > 100 µM (inactive), the GI50 (SNB-19) was 36.9 µM (inactive) and the GI50 (SNB-75) was 38.5 µM (inactive). For the same molecule, the GI50 (SNB-78) was 36.1 µM (inactive), the GI50 (SW-620) was > 100 µM (inactive) and the GI50 (TK-10) was 40.1 µM (inactive). For the same molecule, the GI50 (U-251) was 80 µM (inactive), the GI50 (UACC-257) was > 100 µM (inactive) and the GI50 (UACC-62) was 57.9 µM (inactive). The GI50 (UO-31) was > 100 µM (inactive).

For `O=C(c1ccncc1)n1nc(-c2ccccc2)c(/N=N/c2ccccc2[N+](=O)[O-])c1-c1ccccc1`, the GI50 (786-0) was 76 µM (inactive), the GI50 (A498) was 70.3 µM (inactive) and the GI50 (A549) was 39.4 µM (inactive). For the same molecule, the GI50 (CAKI-1) was 63.8 µM (inactive), the GI50 (CCRF-CEM) was 59.3 µM (inactive) and the GI50 (COLO 205) was > 100 µM (inactive). The GI50 (DLD-1) was 49.9 µM (inactive), the GI50 (DMS-114) was 21 µM (inactive) and the GI50 (DMS-273) was > 100 µM (inactive). The GI50 (EKVX) was 9.04 µM (inactive), the GI50 (HCC 2998) was 34.7 µM (inactive) and the GI50 (HCT-116) was 44.3 µM (inactive). The GI50 (HL-60) was 46.2 µM (inactive), the GI50 (HOP-62) was 38.3 µM (inactive) and the GI50 (HOP-92) was 35.6 µM (inactive). For the same molecule, the GI50 (HT-29) was 26.2 µM (inactive), the GI50 (IGROV-1) was 73.8 µM (inactive) and the GI50 (K562) was 36.3 µM (inactive). For the same molecule, the GI50 (KM12) was 19.3 µM (inactive), the GI50 (LXFL 529) was 74.6 µM (inactive) and the GI50 (M14) was > 100 µM (inactive). The GI50 (M19-MEL) was > 100 µM (inactive), the GI50 (MOLT-4) was 38.9 µM (inactive) and the GI50 (Malme-3M) was > 100 µM (inactive). For the same molecule, the GI50 (NCI-H23) was 30 µM (inactive), the GI50 (NCI-H522) was 56 µM (inactive) and the GI50 (OVCAR-3) was 45 µM (inactive). The GI50 (OVCAR-4) was > 100 µM (inactive), the GI50 (OVCAR-8) was 56.1 µM (inactive) and the GI50 (RPMI-8226) was 28.3 µM (inactive). The GI50 (RXF 631) was 38.5 µM (inactive), the GI50 (SF-268) was 82 µM (inactive) and the GI50 (SF-295) was 32.1 µM (inactive). For the same molecule, the GI50 (SF-539) was 50.8 µM (inactive), the GI50 (SK-MEL-28) was > 100 µM (inactive) and the GI50 (SK-MEL-2) was > 100 µM (inactive). The GI50 (SK-MEL-5) was 21.6 µM (inactive), the GI50 (SK-OV-3) was > 100 µM (inactive) and the GI50 (SN12C) was > 100 µM (inactive). For the same molecule, the GI50 (SNB-19) was 36.9 µM (inactive), the GI50 (SNB-75) was 15.7 µM (inactive) and the GI50 (SNB-78) was 65.3 µM (inactive). The GI50 (SR) was 36.6 µM (inactive), the GI50 (SW-620) was 67.3 µM (inactive) and the GI50 (TK-10) was 67.9 µM (inactive). The GI50 (UACC-257) was 40.8 µM (inactive), the GI50 (UACC-62) was 75.3 µM (inactive) and the GI50 (UO-31) was 9.62 µM (inactive). The GI50 (XF498) was 33.5 µM (inactive).
